Measurements taken from US10342749B2, “Antiperspirant compositions comprising alums” (Conopco, Inc., priority 2014, dated 2019).

Experiments:
human skin = experiment: Mitigation of irritation by inorganic base (inventors' research); type: in vivo; conditions: as third salt (metal oxide)
[1] = at 30° C.; cited from earlier work

**Q.** Which mitigating irritation (human skin) does the source give for `[O]=[Zn]` [zinc oxide] here?
**A.** ineffective

**Q.** What about the water solubility [1] of the same molecule?
**A.** 1.6 µg/mL
